Laboratory results: the CheMixHub ionic liquid set

Experiment: xn = mol fraction of the nth substance listed

CCCCn1cc[n+](C)c1C.O=S(=O)([N-]S(=O)(=O)C(F)(F)F)C(F)(F)F + CC1COC(=O)O1
101.3 kPa
Details	viscosity [mPa·s]
288.15 K, x1 = 0.6989	76.5
293.15 K, x1 = 0.0902	4.602
293.15 K, x1 = 0.6034	43.21
298.15 K, x1 = 0.4039	16.99
303.15 K, x1 = 0.193	5.92
303.15 K, x1 = 0.4996	20.52
303.15 K, x1 = 0.8107	50
303.15 K, x1 = 1	78.6
308.15 K, x1 = 0.193	5.23
308.15 K, x1 = 0.8107	40.47
313.15 K, x1 = 0.0902	2.96
313.15 K, x1 = 0.4039	10.52
313.15 K, x1 = 1	50.1
318.15 K, x1 = 0.193	4.177
318.15 K, x1 = 0.2934	6.16
318.15 K, x1 = 0.4996	13.02
318.15 K, x1 = 0.8107	27.72
318.15 K, x1 = 1	41.04
328.15 K, x1 = 0.0902	2.263
333.15 K, x1 = 0.8107	17.54
333.15 K, x1 = 1	24.25
338.15 K, x1 = 0.2934	4.026
338.15 K, x1 = 0.4996	7.4
343.15 K, x1 = 0.4996	6.47
343.15 K, x1 = 0.6034	8.56

O=C(O)CC(O)(CC(=O)O)C(=O)O + CCCC[N+](CCCC)(CCCC)CCCC.[Cl-] + O
100 kPa, x2 = 0.1428, x1 = 0.1428
Details	electrical conductivity [S/m]	viscosity [mPa·s]
293.15 K	0.0384	620
303.15 K	0.0639	380
313.15 K	0.103	245
323.15 K	0.161	161
333.15 K	0.245	108

CCCCn1cc[n+](C)c1C.O=S(=O)([N-]S(=O)(=O)C(F)(F)F)C(F)(F)F + CCCC[n+]1ccn(C)c1C.F[B-](F)(F)F
Details	electrical conductivity [S/m]
358.15 K, 100 kPa, x1 = 1	1.71

CCCCCCCCCC[n+]1ccn(C)c1.[Cl-] + CC(C)O
298.15 K, 101.3 kPa, frequency 5e-05 MHz
Details	electrical conductivity [S/m]
x1 = 0.01207	0.0497
x1 = 0.02515	0.0872
x1 = 0.03936	0.126
x1 = 0.05486	0.17
x1 = 0.07184	0.218
x1 = 0.09051	0.266
x1 = 0.1111	0.308
x1 = 0.134	0.337
x1 = 0.1597	0.348
x1 = 0.1884	0.343
x1 = 0.2211	0.326
x1 = 0.2583	0.312
x1 = 0.3013	0.325
x1 = 0.3514	0.399
x1 = 0.4106	0.584
x1 = 0.4815	0.944

CC(=O)[O-].CC[NH+](CC)CC + CS(C)=O
viscosity [mPa·s], 101 kPa
Details	298.15 K	303.15 K	308.15 K
x2 = 0	24.12	19.64	16.13
x2 = 0.0534	22.91	18.67	15.35
x2 = 0.0936	22.01	17.94	14.76
x2 = 0.1496	20.75	16.93	13.94
x2 = 0.1837	19.99	16.31	13.44
x2 = 0.2154	19.28	15.74	12.98
x2 = 0.2836	17.76	14.51	11.98
x2 = 0.3204	16.94	13.85	11.44
x2 = 0.3837	15.53	12.71	10.51
x2 = 0.4536	13.97	11.45	9.49
x2 = 0.5169	12.56	10.31	8.56
x2 = 0.5647	11.49	9.45	7.86
x2 = 0.6447	9.71	8.01	6.69
x2 = 0.7301	7.81	6.48	5.45
x2 = 0.7884	6.52	5.44	4.61
x2 = 0.839	5.41	4.55	3.89
x2 = 0.8848	4.42	3.76	3.24
x2 = 0.9121	3.84	3.29	2.86
x2 = 0.9393	3.26	2.82	2.48
x2 = 0.9649	2.72	2.39	2.13
x2 = 0.9764	2.48	2.2	1.98
